How the values were obtained:
[1] = Hydrolysis Assay - Condition 2 (DI Water); format: physicochemical; conditions: 25° C., 0.5 mM
Description: 50 uL of compound (10 mM) in DMSO was diluted into 950 uL of DI water to a final concentration of 0.5 mM. The hydrolysis kinetics were conducted at 25° C. and measured by LCMS at a certain time interval.
(§1) The corresponding LCMS chromatogram were recorded and the conversions were calculated by integration of each peak.
(§2) • 1) LCMS spectra were obtained using Agilent 1200G1956A or SHIMADZU LCMS-2020. • Standard LCMS conditions were as follows (running time 1.55 minutes): • Acidic condition: Mobile Phase A: 0.0375% TFA in water (v/v). Mobile Phase B: 0.01875% TFA in acetonitrile (v/v); Column: Kinetex EVO C18 30*2.1 mm, 5 μm. • Basic condition: Mobile Phase A: 0.025% NH3·H2O in water (v/v). Mobile Phase B: Acetonitrile; Column: Kinetex EVO C18 2.1×30 mm, 5 μm. • 2) Conversion (%)=peak area 1/(peak area 1+peak area 2)*100%, peak area 1 is the integration of hydrolyzed product, peak area 2 is the integration of starting material.

[2] = Hydrolysis Assay - Condition 1 (SGF); format: physicochemical; conditions: Condition 1: SGF with pepsin pH 1.5, 37° C., 0.5 mM
Description: 50 uL of compound (10 mM) in DMSO was diluted into 950 uL of Simulated Gastric Fluid (SGF) with pepsin (pH 1.5) to a final concentration of 0.5 mM. The hydrolysis kinetics were conducted at 37° C. and measured by LCMS at a certain time interval.
as §1, §2

[3] = Plasma Stability Assay (Example A2), human plasma; format: in vitro ADME; conditions: 37° C., prodrug remaining
Description: (§3) Each test was carried out in duplicate for each time point; 0 min, 15 min, 30 min, 60 min, 120, 240 min. […]

[4] = Plasma Stability Assay (Example A2), mouse plasma; format: in vitro ADME; conditions: Mouse Plasma, 37° C., prodrug remaining
Description: as §3

[5] = Plasma Stability Assay (Example A3), rat plasma; format: in vitro ADME; conditions: 10 μM, 37° C., prodrug remaining
From the text: (§4) The data is represented in the table below.

[6] = Plasma Stability Assay (Example A3), human plasma; format: in vitro ADME; conditions: 10 μM, 37° C., prodrug remaining
From the text: as §4

SMILES | Conversion (%) ([1]; 1 min) | Conversion (%) ([1]; 5 min) | Conversion (%) ([1]; 30 min) | Conversion (%) ([1]; 1 h) | Conversion (%) ([1]; 4 h) | Conversion (%) ([1]; 24 h) | Conversion (%) ([2]; 1 min) | Conversion (%) ([2]; 5 min) | Conversion (%) ([2]; 30 min) | Conversion (%) ([2]; 1 h) | Conversion (%) ([2]; 4 h) | Conversion (%) ([2]; 24 h) | Prodrug (%) ([3]; 0 min) | Prodrug (%) ([3]; 15 min) | Prodrug (%) ([3]; 30 min) | Prodrug (%) ([3]; 60 min) | Prodrug (%) ([3]; 120 min) | Prodrug (%) ([3]; 240 min) | Prodrug (%) ([4]; 0 min) | Prodrug (%) ([4]; 15 min) | further results
COc1ccc([C@@]23CCC(OP(=O)(OCc4ccccc4)OCc4ccccc4)=C[C@@H]2N(C)CC3)cc1OC [Compound 319, [(3aS,7aS)-3a-(3,4-dimethoxyphenyl)-1-methyl-3,4,5,7a-tetrahydro-2H-indol-6-yl] dibenzyl phosphate] | 2 | 4 | 5 | 10 | 20 | 59 | 2 | 5 | 25 | 26 | 60 | 61 |  |  |  |  |  |  |  |  | 
COc1ccc([C@@]23CCC(OP(=O)(Oc4ccccc4)Oc4ccccc4)=C[C@@H]2N(C)CC3)cc1OC [Compound 320, [(3aS,7aS)-3a-(3,4-dimethoxyphenyl)-1-methyl-3,4,5,7a-tetrahydro-2H-indol-6-yl]diphenyl phosphate] | 0 | 0 | 0 | 0 | 0 | 0 | 0 | 0 | 0 | 0 | 0 | 0 | 100 | 95.7 | 98.5 | 95.7 | 98.2 | 95.3 | 100 | 58.5 | Prodrug (%) ([4]; 30 min): 46.5%; Prodrug (%) ([4]; 60 min): 30.7%; Prodrug (%) ([4]; 120 min): 19.4%; Prodrug (%) ([4]; 240 min): 11.7%
COc1ccc([C@@]23CCC(OC(=O)N(C)C)=C[C@@H]2N(C)CC3)cc1OC [Compound 324, [(3aS,7aS)-3a-(3,4-dimethoxyphenyl)-1-methyl-3,4,5,7a-tetrahydro-2H-indol-6-yl] N,N-dimethylcarbamate] | 0 | 0 | 0 | 0 | 0 | 0 | 0 | 0 | 0 | 0 | 0 | 0 | 100.0 | 98.2 | 98.7 | >99 | >99 | 96.5 | 100.0 | 97.4 | Prodrug (%) ([4]; 30 min): 94.4%; Prodrug (%) ([4]; 60 min): 94.9%; Prodrug (%) ([4]; 120 min): 92.6%; Prodrug (%) ([4]; 240 min): 88.9%
CCN(C)C(=O)OC1=C[C@@H]2N(C)CC[C@]2(c2ccc(OC)c(OC)c2)CC1 [Compound 326, [(3aS,7aS)-3a-(3,4-dimethoxyphenyl)-1-methyl-3,4,5,7a-tetrahydro-2H-indol-6-yl]N-ethyl-N-methyl-carbamate] | 0 | 0 | 0 | 0 | 0 | 0 | 0 | 0 | 0 | 0 | 0 | 0 | 100.0 | 98.2 | 99.9 | 98.4 | >99 | 93.9 | 100.0 | >99 | Prodrug (%) ([4]; 30 min): 96.6%; Prodrug (%) ([4]; 60 min): >99%; Prodrug (%) ([4]; 120 min): >99%; Prodrug (%) ([4]; 240 min): 98.5%
COc1ccc([C@@]23CCC(OC(=O)N4CCN(C)CC4)=C[C@@H]2N(C)CC3)cc1OC [Compound 327, [(3aS,7aS)-3a-(3,4-dimethoxyphenyl)-1-methyl-3,4,5,7a-tetrahydro-2H-indol-6-yl]4-methylpiperazine-1-carboxylate] | 0 | 0 | 0 | 0 | 0 | 0 | 0 | 0 | 0 | 0 | 0 | 0 | 100 | >99 | 98.9 | >99 | >99 | 94.4 | 100 | >99 | Prodrug (%) ([4]; 30 min): >99%; Prodrug (%) ([4]; 60 min): >99%; Prodrug (%) ([4]; 120 min): >99%; Prodrug (%) ([4]; 240 min): >99%
COc1ccc([C@@]23CCC(OP(=O)(O)O)=C[C@@H]2N(C)CC3)cc1OC [Compound 359, [(3aS,7aS)-3a-(3,4-dimethoxyphenyl)-1-methyl-3,4,5,7a-tetrahydro-2H-indol-6-yl] dihydrogen phosphate] |  |  |  |  |  |  |  |  |  |  |  |  | 100 | 69.0 | 65.1 | 50.4 | 32.8 | 25.6 | 100 | >99 | Prodrug (%) ([4]; 30 min): 82.7%; Prodrug (%) ([4]; 60 min): 79.0%; Prodrug (%) ([4]; 120 min): 50.7%; Prodrug (%) ([4]; 240 min): 59.1%
COc1ccc([C@@]23CCC(OP(=O)(O)OCOC(=O)C(C)C)=C[C@@H]2N(C)CC3)cc1OC [Compound 408, [[(3aS,7aS)-3a-(3,4-dimethoxyphenyl)-1-methyl-3,4,5,7a-tetrahydro-2H-indol-6-yl]oxy-hydroxy-phosphoryl]oxymethyl 2-methylpropanoate] |  |  |  |  |  |  |  |  |  |  |  |  |  |  |  |  |  |  |  |  | Prodrug (%) ([5]; 0 min): 100.0%; Prodrug (%) ([5]; 10 min): 63.8%; Prodrug (%) ([5]; 30 min): 29.2%; Prodrug (%) ([5]; 60 min): 8.2%; Prodrug (%) ([5]; 120 min): 0.8%; Prodrug (%) ([5]; 240 min): 0.0%; Prodrug (%) ([6]; 0 min): 100.0%; Prodrug (%) ([6]; 10 min): 94.2%; Prodrug (%) ([6]; 30 min): 82.6%; Prodrug (%) ([6]; 60 min): 69.1%; Prodrug (%) ([6]; 120 min): 45.4%; Prodrug (%) ([6]; 240 min): 23.5%
COc1ccc([C@@]23CCC(OP(=O)(O)OCOC(=O)C(C)(C)C)=C[C@@H]2N(C)CC3)cc1OC [Compound 409, [[(3aS,7aS)-3a-(3,4-dimethoxyphenyl)-1-methyl-3,4,5,7a-tetrahydro-2H-indol-6-yl]oxy-hydroxy-phosphoryl]oxymethyl 2,2-dimethylpropanoate] |  |  |  |  |  |  |  |  |  |  |  |  |  |  |  |  |  |  |  |  | Prodrug (%) ([5]; 0 min): 100.0%; Prodrug (%) ([5]; 10 min): 89.9%; Prodrug (%) ([5]; 30 min): 81.2%; Prodrug (%) ([5]; 60 min): 71.0%; Prodrug (%) ([5]; 120 min): 44.5%; Prodrug (%) ([5]; 240 min): 22.7%; Prodrug (%) ([6]; 0 min): 100.0%; Prodrug (%) ([6]; 10 min): >99%; Prodrug (%) ([6]; 30 min): 95.2%; Prodrug (%) ([6]; 60 min): 93.0%; Prodrug (%) ([6]; 120 min): 87.3%; Prodrug (%) ([6]; 240 min): 75.8%
COc1ccc([C@@]23CCC(OP(=O)(O)OCOC(=O)OC(C)C)=C[C@@H]2N(C)CC3)cc1OC [Compound 410, [[(3aS,7aS)-3a-(3,4-dimethoxyphenyl)-1-methyl-3,4,5,7a-tetrahydro-2H-indol-6-yl]oxy-hydroxy-phosphoryl]oxymethyl isopropyl carbonate] |  |  |  |  |  |  |  |  |  |  |  |  |  |  |  |  |  |  |  |  | Prodrug (%) ([5]; 0 min): 100.0%; Prodrug (%) ([5]; 10 min): 63.0%; Prodrug (%) ([5]; 30 min): 25.4%; Prodrug (%) ([5]; 60 min): 7.1%; Prodrug (%) ([5]; 120 min): 0.52%; Prodrug (%) ([5]; 240 min): 0.01%; Prodrug (%) ([6]; 0 min): 100.0%; Prodrug (%) ([6]; 10 min): 96.3%; Prodrug (%) ([6]; 30 min): 98.8%; Prodrug (%) ([6]; 60 min): 92.7%; Prodrug (%) ([6]; 120 min): 88.2%; Prodrug (%) ([6]; 240 min): 75.5%

Reference: patent US20260015322A1, “DELIVERY OF THERAPEUTIC ALKALOID COMPOUNDS” (priority 2022, published 2026)
